Test results: patent EP1733731A1, “New uses of Glycerol derivatives in particular in cosmetics” (AGRO INDUSTRIE RECHERCHES ET DEVELOPPEMENTS (A.R.D.), priority 2005, dated 2006)

Key:
[1] = molecular target: T1, plasmine humaine (Homo sapiens, UniProt P00747); assay: activation of proMMP-3 by plasmin in vitro (western blot); assay type: biochemical; details: 25 µg/mL; 65 nM plasmin, 100 nM proMMP-3; Figure 1A-4
T1 construct: connus pour interagir avec la plasmine via son domaine kringle V; testé in vitro sur l'activité amidolytique de la plasmine à l'aide d'un substrat synthétique (S-2251, Chromogénix)
Procedure: • La Figure 1 représente la modulation de l'activation des proMMP-3 (Figures 1A et 1B) et proMMP-1 (Figure 1C) in vitro comme en culture par des extraits glycolipidiques du gluten de blé. • Figure 1A : 100 nM de proMMP-3 (Figure 1A-1) sont incubés avec 65 nM de plasmine en absence (Figure 1A-2) ou en présence de glycolipides (Figure 1A-3 et 4), à la concentration de 50µg/mL pour M1-Sucres (Figure 1A-3) et 25 µg/mL pour ED 23-11 (Figure 1A-4). • Figure 1B : des fibroblastes dermiques sont ensemencés en plaque 24 puits à raison de […] cellules par puits jusque confluence. Après une mise au repos de 18 heures, les cellules sont incubées en présence (Figure 1B-2, 3 et 4) ou non (Figure 1B-1) de 2,5 µg/mL de plasmine ainsi que des glycolipides M1(-Sucres) (Figure 1B-3) et ED 23-11 (Figure 1B-4) aux mêmes concentrations que précédemment. • Figure 1C : des fibroblastes dermiques sont ensemencés en plaque 24 puits à raison de […] cellules par puits jusque confluence. Après une mise au repos de 18 heures, les cellules sont incubées en présence (Figure 1C-2, 3 et 4) ou non (Figure 1C-1) de 2,5 µg/mL de plasmine ainsi que des glycolipides M1(-Sucres) (Figure 1C-3) et ED 23-11 (Figure 1C-4) aux mêmes concentrations que précédemment. Dans l'ensemble des figures 1A, 1B et 1C, la réaction est arrêtée aux temps indiqués par addition de 0,3 mg/ml d'aprotinine. […]

[2] = molecular target: T1, plasmine humaine; assay: amidolytic activity of plasmin on synthetic substrate S-2251; assay type: biochemical
Procedure: L'effet de ces différentes fractions et produits purs a donc été testé in vitro sur l'activité amidolytique de la plasmine à l'aide d'un substrat synthétique (S-2251, Chromogénix).
Les fractions ou composés purs issus de l'extraction sont solubilisés avant utilisation dans du diméthylsulfoxyde (DMSO) à une concentration de stockage de 20 mg/mL. La conservation est effectuée à -80°C. 12 nM de plasmine humaine sont pré-incubés en absence et en présence de concentrations croissantes (0 à 200 µg/mL) des différentes fractions et produits dans un tampon Tris-HCl 100 mM pH 7,5. La réaction est déclenchée par addition de 0,3 mM de S-2251. L'hydrolyse du S-2251 est suivie par mesure de l'absorbance du para-nitroaniline à 405 nm. La courbe représentant les variations d'absorbance en fonction du temps est tracée et la vitesse initiale de la réaction est déterminée par calcul de la pente de la tangente à l'origine. Le rapport Vi/Vo est calculé, où Vo représente la vitesse initiale en absence d'effecteur et Vi cette vitesse en présence d'un effecteur, et la courbe Vi/Vo en fonction de la concentration en en glycolipides est tracée.

T1 sequence (P00747 97-580 limits assumed): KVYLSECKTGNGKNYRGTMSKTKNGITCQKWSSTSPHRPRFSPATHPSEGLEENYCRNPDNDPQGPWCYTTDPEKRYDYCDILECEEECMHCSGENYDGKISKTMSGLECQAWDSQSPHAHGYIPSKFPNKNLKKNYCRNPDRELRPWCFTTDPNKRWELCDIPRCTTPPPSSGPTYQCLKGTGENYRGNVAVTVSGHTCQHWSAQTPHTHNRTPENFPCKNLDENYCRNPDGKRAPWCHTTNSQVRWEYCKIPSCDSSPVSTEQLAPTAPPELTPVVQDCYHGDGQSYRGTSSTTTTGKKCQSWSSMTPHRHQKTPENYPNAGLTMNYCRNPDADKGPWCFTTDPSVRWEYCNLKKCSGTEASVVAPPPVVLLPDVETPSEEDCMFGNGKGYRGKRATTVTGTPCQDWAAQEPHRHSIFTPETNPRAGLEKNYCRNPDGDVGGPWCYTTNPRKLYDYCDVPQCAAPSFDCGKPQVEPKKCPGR
T1 sequence (P00747 581-810 limits assumed): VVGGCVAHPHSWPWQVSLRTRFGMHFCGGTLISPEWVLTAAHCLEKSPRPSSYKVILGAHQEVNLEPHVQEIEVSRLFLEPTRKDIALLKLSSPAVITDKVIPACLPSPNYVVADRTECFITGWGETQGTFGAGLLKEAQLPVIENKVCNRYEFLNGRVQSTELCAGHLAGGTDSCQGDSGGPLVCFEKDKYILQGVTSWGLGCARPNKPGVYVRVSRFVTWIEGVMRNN

## CCCCC/C=C\C/C=C\CCCCCCCCOC[C@H](CO[C@@H]1O[C@H](COC(=O)CCCCCCCCCCCCCCC)[C@H](O)[C@H](O)[C@H]1O)OCCCCCCCC/C=C\C/C=C\CCCCC [ED23-11, 1,2-di-O-linoléyl-3-O-[6'-O-palmitoyl-β-D-galactopyranosyl]-sn-glycérol]
[1]
  activation de la proMMP-3 par la plasmine: inhibition
[2]; 25 µg/mL, 12 nM plasmin, 0,3 mM S-2251
  Plasmine (Vi/Vo): 2,11 ± 0,16
[2]; at isoconcentration
  Action sur l'activité de la plasmme (Vi/V0) à isoconcentration: 8,44
[2]; plasmin amidolytic activity, increase from one fractionation step to the next
  Augmentation d'activité: 2,36
